This is an account of results in US20240124439A1, “Pyrido[2,3-D]Imidazole Derivatives and Their Use As Inhibitors of ITK for the Treatment of Skin Disease” (Pfizer Inc., priority 2020, published 2024).

For orientation: IC50 means the midpoint of a concentration-inhibition curve. Low values mean higher potency, high ones lower potency.

Assay [1] deals with IL-2-Inducible T-Cell Kinase (ITK) (Homo sapiens (Human), UniProt Q08881). The assay is described as follows: ITK enzyme assay (IL-2-inducible T-cell kinase activity). Format: biochemical. The conditions noted are these: geometric mean of count n. As for the experimental part: ITK activity was determined by measuring the effect of a test compound in an ITK enzyme assay.
1.0 M HEPES Buffer pH 7.5 solution was prepared as follows: 238.3 g HEPES free acid (Sigma) and 800 mL of water were combined, and the mixture was stirred until complete dissolution. The pH was adjusted to 7.5 via titration with 5N NaOH and the volume adjusted to 1000 mL. The solution was filtered and sterilized.
ITK assay buffer was prepared as follows: 50 mL of HPLC-grade water was treated with 2 mL of 1.0 M HEPES Buffer, 500 μL of 2% Gelatin (Sigma), 1.0 mL of aqueous MgCl2 solution (1.0 M), and 1.0 mL of aqueous glutathione solution (0.5 M), and the solution was mixed. The solution was brought to 99 mL in a graduated cylinder by addition of water and sterilized through a 0.2 μm filter. 0.1 mL of Brij-35™ Surfact-Amps™ Detergent Solution (10% w/v aqueous solution, ThermoFisher) and 1.0 mL of ATP (Teknova,100 mM) were added and the solution was mixed.
Preparation of 1.33× ITK enzyme solution was as follows: 49.99 mL of ITK assay buffer was treated with 4.1 μL of ITK enzyme (ITK FL (N-Flag and C-His tagged, […]) Lake Pharma, 0.25 mg/ml in a buffer containing 25 mM Tris pH 7.8, 150 mM NaCl, 10% glycerol and 2 mM TCEP) and the mixture was gently agitated. The resulting solution was stored on ice. 30 Minutes prior to use, the enzyme solution was removed from ice and equilibrated to RT by incubation in a RT water bath.
Preparation of 4× ITK substrate solution was as follows: 50 mL of ITK assay buffer was treated with 100 μL of BTK peptide (China Peptide Company, 2 mM stock solution in DMSO). The tube was capped, mixed by gently inverting the tube, and then stored on ice. 30 Minutes prior to use, the substrate solution was removed from ice and equilibrated to RT by incubation in a RT water bath.
At the time of assay, 7.5 μL of the 1.33× ITK enzyme solution was added to plate wells containing 0.1 μL of varying concentrations of test compound in DMSO. The plate was incubated 30 min at RT. The plate wells were each treated with 2.5 uL of the 4× ITK substrate solution and the plate was sealed (TopSeal™, Perkin Elmer). The plate was spun at 1000 rpm for 30 sec and then incubated for 60 min at RT. The seal was removed, and each well was treated with 10 μL of Stop/Detect Buffer (20 mM HEPES pH 7.5, 0.01% gelatin, 1 nM LANCE PT66 (Perkin Elmer), 16.5 μg/ml Surelight APC (Perkin Elmer), 10 mM EDTA, 250 mM NaCl). The plate was again covered and was spun at 1000 rpm for […]. The plate was allowed to incubate overnight at RT and in a closed carrier to reduce dehydration. The seal was removed, and the fluorescence was read with a plate reader with an excitation wavelength of […]. The concentrations and resulting effect values for the tested compound were plotted and the concentration of compound required for 50% effect (IC50) was determined with the four-parameter logistic dose response equation.

The test system of assay [2] is activated CD4+ human T-cells (IL-2). Nature of the assay: IL-2 inhibition in supernatants from activated CD4+ human T-cells (cisbio HTRF). Format: cell-based. The conditions noted are these: T-cell; CD3/CD28-activated CD4+ human T cells, ImmunoCult stimulation 20 to 24 hrs; geometric mean of count n. As for the experimental part:
IL-2 inhibition activity in supernatants from activated CD4+ human T-cells was determined by measuring the effect of a test compound on the activity using the cisbio HTRF™ technology.
Human CD4+ T cells were activated with CD3/CD28 for 3 days and expanded for an additional 4-6 days (7 to 9 days total). On day 0, frozen CD4+ T cells were thawed, treated with CD3/CD28 Dynabeads, and incubated at 37° C./5% CO2. On day 3, the beads were removed, and the cells were diluted to 5×10^5 cells/cm^2, placed in G-Rex10 flask, and incubated at 37° C./5% CO2. On day 7 to day 9 the cells were removed from the G-Rex flasks, counted and diluted back to 1×10^6 cells/ml in standard tissue culture flask.
The expanded CD4+ T-cells were centrifuged at 300×g for 10 minutes and resuspended to 0.5 million cells per ml (30,000 cells/well). 60 μl of CD4+ T cells were added per well to a 384 well plate containing 0.1 μL of varying concentrations of test compound in DMSO. The plates were incubated for 15 min at 37° C./5% CO2. 20 μl of diluted ImmunoCult™ (STEMCELL Technologies, 1:12.5 in T cell assay media) were added to all wells of the plate (1:50 final assay concentration). The plates were incubated for an additional 20 to 24 hrs at 37° C./5% CO2. The plates were centrifuged at 300×g for 10 minutes. 16 μL of supernatant was removed and combined with 4 μl of IL-2 HTRF Abs. (cisbio kit). Plates were incubated for 3 hours at RT and read with an EnVision plate reader at 665 nm and 615 nm wavelengths. The concentrations and resulting effect values for the tested compound were plotted and the concentration of compound required for 50% effect (IC50) was determined with the four-parameter logistic dose response equation.
Background: In TR-FRET formats the signal depends on donor and acceptor labels being close together.

Sequence of IL-2-Inducible T-Cell Kinase (ITK) (Q08881 whole entry): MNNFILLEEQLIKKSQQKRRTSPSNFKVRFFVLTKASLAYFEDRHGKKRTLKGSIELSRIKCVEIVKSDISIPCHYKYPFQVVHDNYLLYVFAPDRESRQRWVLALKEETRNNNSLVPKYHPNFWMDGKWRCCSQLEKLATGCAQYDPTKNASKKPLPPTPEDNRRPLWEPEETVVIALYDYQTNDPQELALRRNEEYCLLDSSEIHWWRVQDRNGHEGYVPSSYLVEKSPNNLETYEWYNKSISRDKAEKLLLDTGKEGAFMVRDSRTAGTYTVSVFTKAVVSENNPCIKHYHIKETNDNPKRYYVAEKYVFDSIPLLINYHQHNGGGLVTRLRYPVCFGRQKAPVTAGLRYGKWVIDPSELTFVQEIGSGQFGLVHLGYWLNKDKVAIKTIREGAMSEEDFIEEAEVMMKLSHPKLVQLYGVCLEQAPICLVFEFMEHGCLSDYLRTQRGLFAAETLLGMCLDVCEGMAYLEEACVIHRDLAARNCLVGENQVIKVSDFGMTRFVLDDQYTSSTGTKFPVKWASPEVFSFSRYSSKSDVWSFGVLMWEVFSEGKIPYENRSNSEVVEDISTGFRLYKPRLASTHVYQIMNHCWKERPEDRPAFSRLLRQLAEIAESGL

Regarding `C[C@@H](C(=O)N(C)c1cnc2[nH]c(-c3n[nH]c4c3C[C@@H]3C[C@]3(C)C4)nc2c1)N1CC2CC(C1)O2` (single isomer, unassigned) [Example 41], the IC50 in assay [1] was found to be 0.116 µM; in assay [2], 0.6 µM. In the case of `C[C@H](C(=O)N(C)c1cnc2[nH]c(-c3n[nH]c4c3C[C@@H]3C[C@]3(C)C4)nc2c1)N1CC2CC(C1)O2` (single isomer, unassigned) [Example 42], the IC50 in assay [1] was 0.021 µM; in assay [2], 0.143 µM. Turning to `CC(C)[C@@H](C(=O)N(C)c1cnc2[nH]c(-c3n[nH]c4c3CC3C[C@]3(C)C4)nc2c1)N1CCOCC1` (stereo in doubt) [Example 3, (S)-N,3-Dimethyl-N-(2-((4aR,5aR)-5a-methyl-1,4,4a,5,5a,6-hexahydrocyclopropa[f]indazol-3-yl)-3H-imidazo[4,5-b]pyridin-6-yl)-2-morpholinobutanamide], the figures for the IC50 in assay [1] and in assay [2] were 0.038 µM and 0.32 µM, respectively. Consider `CC[C@@H](C(=O)N(C)c1cnc2[nH]c(-c3n[nH]c4c3C[C@@H]3C[C@]3(C)C4)nc2c1)N1CCOCC1` [Example 4, (S)-N-Methyl-N-(2-((4aS,5aR)-5a-methyl-1,4,4a,5,5a,6-hexahydrocyclopropa[f]indazol-3-yl)-3H-imidazo[4,5-b]pyridin-6-yl)-2-morpholinobutanamide], for which the concentration for half-maximal inhibition (IC50) in assay [1] came to 0.038 µM; in assay [2] it was 0.205 µM.

Take `CN(C(=O)C(F)(F)C1CCOCC1)c1cnc2nc(-c3n[nH]c4c3CCC(C)(C)C4)[nH]c2c1` [Example 5, N-(2-(6,6-Dimethyl-4,5,6,7-tetrahydro-1H-indazol-3-yl)-1H-imidazo[4,5-b]pyridin-6-yl)-2,2-difluoro-N-methyl-2-(tetrahydro-2H-pyran-4-yl)acetamide]: the results for the concentration for half-maximal inhibition (IC50) in assay [1] and in assay [2] were 0.014 µM and 0.375 µM, respectively. As for `CN(C(=O)Cn1cccn1)c1cnc2nc(-c3n[nH]c4c3C[C@@H]3C[C@]3(C)C4)[nH]c2c1` [Example 6, N-Methyl-N-(2-((4aS,5aR)-5a-methyl-1,4,4a,5,5a,6-hexahydrocyclopropa[f]indazol-3-yl)-1H-imidazo[4,5-b]pyridin-6-yl)-2-(1H-pyrazol-1-yl)acetamide], the concentration for half-maximal inhibition (IC50) in assay [1] amounted to 0.026 µM; in assay [2], 0.343 µM. `CC(C)(C(=O)Nc1cnc2[nH]c(-c3n[nH]c4c3C[C@@H]3C[C@]3(C)C4)nc2c1)N1CCOCC1` [Example 16, 2-Methyl-N-(2-((4aS,5aR)-5a-methyl-1,4,4a,5,5a,6-hexahydrocyclopropa[f]indazol-3-yl)-3H-imidazo[4,5-b]pyridin-6-yl)-2-morpholinopropanamide] registered an IC50 in assay [2] of 2.11 µM.

Compound `CC(C(=O)N(C)c1cnc2[nH]c(-c3n[nH]c4c3C[C@@H]3C[C@]3(C)C4)nc2c1)N1CCOCC1` (stereo partly drawn) [Example 27, N-Methyl-N-(2-((4aS,5aR)-5a-methyl-1,4,4a,5,5a,6-hexahydrocyclopropa[f]indazol-3-yl)-3H-imidazo[4,5-b]pyridin-6-yl)-2-morpholinopropanamide] had an IC50 in assay [1] of 0.062 µM.

`C[C@@H](C(=O)Nc1ccc2[nH]c(-c3n[nH]c4c3CCC(C)(C)C4)nc2c1)N1CCOCC1` [Example 33, (S)-N-(2-(6,6-Dimethyl-4,5,6,7-tetrahydro-1H-indazol-3-yl)-1H-benzo[d]imidazol-5-yl)-2-morpholinopropanamide] displayed an IC50 in assay [2] of 0.315 µM. Same read-out and setting: with `CCc1nc2[nH]c(-c3n[nH]c4c3C[C@@H]3C[C@]3(C)C4)nc2cc1N(C)C(=O)CN1CCOCC1` [Example 37, N-(5-Ethyl-2-((4aS,5aR)-5a-methyl-1,4,4a,5,5a,6-hexahydrocyclopropa[f]indazol-3-yl)-3H-imidazo[4,5-b]pyridin-6-yl)-N-methyl-2-morpholinoacetamide] the figure was 0.815 µM; with `CN(C(=O)CC1CC(F)(F)C1)c1cnc2nc(-c3n[nH]c4c3C[C@@H]3C[C@]3(C)C4)[nH]c2c1` [Example 48, 2-(3,3-Difluorocyclobutyl)-N-methyl-N-(2-((4aS,5aR)-5a-methyl-1,4,4a,5,5a,6-hexahydrocyclopropa[f]indazol-3-yl)-1H-imidazo[4,5-b]pyridin-6-yl)acetamide], 0.326 µM; with `CN(C(=O)CC1CC2(CCC2)C1)c1cnc2nc(-c3n[nH]c4c3C[C@@H]3C[C@]3(C)C4)[nH]c2c1` [Example 49, N-Methyl-N-(2-((4aS,5aR)-5a-methyl-1,4,4a,5,5a,6-hexahydrocyclopropa[f]indazol-3-yl)-1H-imidazo[4,5-b]pyridin-6-yl)-2-(spiro[3.3]heptan-2-yl)acetamide], 0.157 µM. On the same count and under the same terms, next, `CN(C(=O)CC1CC2(C1)CC2(F)F)c1cnc2nc(-c3n[nH]c4c3C[C@@H]3C[C@]3(C)C4)[nH]c2c1` (stereo partly drawn) [Example 50, 2-(1,1-Difluorospiro[2.3]hexan-5-yl)-N-methyl-N-(2-((4aS,5aR)-5a-methyl-1,4,4a,5,5a,6-hexahydrocyclopropa[f]indazol-3-yl)-1H-imidazo[4,5-b]pyridin-6-yl)acetamide]: 0.171 µM; `CN(C(=O)CC1CC2(C1)CC(F)(F)C2)c1cnc2nc(-c3n[nH]c4c3C[C@@H]3C[C@]3(C)C4)[nH]c2c1` [Example 54, 2-(6,6-Difluorospiro[3.3]heptan-2-yl)-N-methyl-N-(2-((4aS,5aR)-5a-methyl-1,4,4a,5,5a,6-hexahydrocyclopropa[f]indazol-3-yl)-1H-imidazo[4,5-b]pyridin-6-yl)acetamide]: 0.131 µM.

As to `CN(C(=O)C(C)(C)C1CCOCC1)c1cnc2[nH]c(-c3n[nH]c4c3CCC(C)(C)C4)nc2c1` [Example 93, N-(2-(6,6-Dimethyl-4,5,6,7-tetrahydro-1H-indazol-3-yl)-3H-imidazo[4,5-b]pyridin-6-yl)-N,2-dimethyl-2-(tetrahydro-2H-pyran-4-yl)propanamide], in assay [1], the concentration for half-maximal inhibition (IC50) was determined as 0.333 µM.

Compound `CN(C(=O)C1CC(C)(C)C1)c1cnc2[nH]c(-c3n[nH]c4c3CCC(C)(C)C4)nc2c1` [Example 96, N-(2-(6,6-Dimethyl-4,5,6,7-tetrahydro-1H-indazol-3-yl)-3H-imidazo[4,5-b]pyridin-6-yl)-N,3,3-trimethylcyclobutane-1-carboxamide] had a half-inhibitory concentration (IC50) in assay [1] of 0.311 µM. `CN(C(=O)C12CC(C1)C2)c1cnc2[nH]c(-c3n[nH]c4c3CCC(C)(C)C4)nc2c1` [Example 111, N-(2-(6,6-Dimethyl-4,5,6,7-tetrahydro-1H-indazol-3-yl)-3H-imidazo[4,5-b]pyridin-6-yl)-N-methylbicyclo[1.1.1]pentane-1-carboxamide]: in assay [1], inhibition was half-maximal at 0.416 µM (IC50).
